The results in this text go back to publication PMC9737838, “Long-Distance Protonation-Conformation Coupling in Phytochrome Species” (Molecules, 2022).

This assay concerns the target T1, Agp1-PGP (photosensory module PAS-GAF-PHY of Agp1) (Agrobacterium fabrum, UniProt Q7CY45).
T1 construct: gene Atu1990; photosensory module PAS-GAF-PHY, residues 1-504, C-terminal His6 tag; apoprotein from E. coli assembled with biliverdin; plasmids with and without deletion of the first 9 residues used for mutagenesis
T1 sequence (Q7CY45 1-495): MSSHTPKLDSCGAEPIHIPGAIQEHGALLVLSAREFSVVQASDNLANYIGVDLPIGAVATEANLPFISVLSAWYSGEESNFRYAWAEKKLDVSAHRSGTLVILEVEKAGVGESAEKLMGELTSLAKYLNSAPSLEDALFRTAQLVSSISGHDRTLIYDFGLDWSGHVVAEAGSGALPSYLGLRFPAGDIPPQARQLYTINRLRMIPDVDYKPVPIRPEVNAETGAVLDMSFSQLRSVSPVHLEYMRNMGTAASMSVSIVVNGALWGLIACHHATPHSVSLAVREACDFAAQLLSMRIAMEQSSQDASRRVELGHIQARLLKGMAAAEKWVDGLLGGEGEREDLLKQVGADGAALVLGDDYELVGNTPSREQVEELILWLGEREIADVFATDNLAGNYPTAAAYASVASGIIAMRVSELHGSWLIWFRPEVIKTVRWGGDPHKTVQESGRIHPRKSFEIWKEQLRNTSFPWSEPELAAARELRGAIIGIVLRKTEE
Briefly: UV-Vis absorption of the assembled holoprotein, pH titration. The format is binding. The following applies: covalent, Cys20; Pr state, 702 nm band, 300 mM NaCl, 50 mM Tris, 20 °C.

`C=CC1=C(C)/C(=C/C2=NC(=C\c3[nH]c(/C=C4\NC(=O)C(C)=C4C=C)c(C)c3CCC(=O)O)/C(CCC(=O)O)=C2C)NC1=O` [BV, biliverdin]: the “UV-Vis absorption of the assembled holoprotein, pH titration” value is “The apoprotein was expressed and assembled with BV according to established protocols”.
